From patent EP4772514A1, “MACROCYCLIC COMPOUNDS, PREPARATION METHOD THEREFOR, AND USE THEREOF” (Genfleet Therapeutics (Shanghai) Inc., priority 2023, dated 2025)

Legend:
Assay type in all cases: cell-based
NCI-H441 cells = experiment: 3D cell proliferation assay (CellTiter Glo-3D) in NCI-H441 cells; details: Homo sapiens, NCI-H441, 120 h, NCI-H441, human lung cancer cell strain, KRAS G12V mutation; 3D culture, 2% FBS, 5 days; read-out: H441 AP IC50
Summary of the method: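 KRAS^G12V NCI-H441 and KRAS^G12D AsPC-1 cells (800 cells/well each) grown in RPMI-1640 with 2% FBS and treated the day after seeding with 3.16-fold compound dilutions (0.1% DMSO) for 5 days at 37 °C. Viability by CellTiter-Glo 3D luminescence; inhibition versus DMSO and cell-free controls, IC50 from four-parameter fit.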

p-ERK [1] = experiment: Cell p-ERK assay (HTRF, Advance ERK phospho-T202/Y204 kit) in AsPC-1 cells; details: ASPC1; AsPC-1, human pancreatic cancer cell strain, KRAS G12D mutation; 3 h compound incubation
Protocol: AsPC-1 cells were purchased from ATCC, Cat. No. CRL-1682; NCI-H441 cells were purchased from ATCC, Cat. No. HTB-174; RPMI-1640 medium was purchased from Gibco, Cat. No. 11875-093; FBS was purchased from Gibco, Cat. No. 10099-141C; penicillin/streptomycin double-antibiotic solution (PS) was purchased from Gibco, Cat. No. 15140-122; trypsin (containing EDTA) was purchased from Gibco, Cat. No. 25200-072; DMSO was purchased from VWRAMRESCO, Cat. No. 0231-500ML; 96-well cell culture plates were purchased from Corning, Cat. No. 3599; white-bottomed, opaque 96-well plates were purchased from Cisbio, Cat. No. 66PL96025; Advance ERK phospho-T202/Y204 kit was purchased from Cisbio, Cat. No. 64AERPEH; cell counter was purchased from CHEMOMETEC, model: NC-200; microplate reader was purchased from PerkinElmer, model: EnVision.
AsPC-1, a human pancreatic cancer cell strain endogenously containing a KRAS^G12D mutation, was cultured in a complete medium containing RPMI-1640 + 10% FBS + 1% PS. NCI-H441, a human non-small cell lung cancer cell strain endogenously containing a KRAS^G12V mutation, was cultured in a complete medium containing RPMI-1640 + 10% FBS + 1% PS.
The cells were digested with trypsin (containing EDTA), collected in their corresponding complete media, and counted. The density of the cell suspensions was adjusted with their corresponding complete media, and AsPC-1 cells (10000 cells/well) or NCI-H441 cells (20000 cells/well) were seeded into a 96-well cell culture plate, with the volume of the medium in each well being 80 µL. The cell culture plate was incubated in an incubator at 37 °C with 5% CO2 overnight. A series of 3.16-fold gradient dilutions of a 1000× compound stock solution were prepared with DMSO, and then diluted 200-fold with the complete medium described above to give 5× compound stock solutions. On the day after cell seeding, 20 µL of the 5× compound stock solution was added to each cell culture well. As a result, the final concentration of the compound in the cell culture well became 1×, and the DMSO content in the well was 0.1%. In addition to the compound-treated wells described above, cell-containing DMSO control wells were also set. A complete medium containing 0.5% DMSO was added at 20 µL/well. After the mixture was well mixed, the culture plate was incubated in the incubator at 37 °C with 5% CO2 for another 3 h. The medium was then removed from the culture wells, and 50 µL of cell lysis buffer (from Advance ERK phospho-T202/Y204 kit) was added to each well. The mixture was well mixed, incubated for 30 min, and then transferred to a white-bottomed, opaque 96-well assay plate at 16 µL/well, and separately, 16 µL of cell lysis buffer was added to additional wells (serving as blank wells) in the assay plate. After the transfer was completed, 4 µL of p-ERK HTRF antibody mixture (from Advance ERK phospho-T202/Y204 kit) was added to each well of the assay plate, followed by a 4-hour incubation. The HTRF signal values (RLU) were then measured using a microplate reader, and the inhibition rate of the compound against p-ERK levels was calculated as follows: IR(%) = (RLUDMSO - RLUcompound)/(RLUDMSO - RLUblank) × 100%, where RLUDMSO is the average HTRF signal value from the DMSO control well samples, RLU is the average HTRF signal value from the blank well samples, and RLUcompound is the HTRF signal value from the compound-treated well samples. Using an XLfit software, the IR(%) values were plotted against the logarithm of the compound concentrations, and the dose-response curves were fitted using the four-parameter method to calculate the IC50 values.

p-ERK [2] = experiment: Cell p-ERK assay (HTRF, Advance ERK phospho-T202/Y204 kit) in NCI-H441 cells; details: Homo sapiens, NCI-H441, 3 h, NCI-H441, human non-small cell lung cancer cell strain, KRAS G12V mutation; 3 h compound incubation
Summary of the method: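 Cells with endogenous KRAS mutations, AsPC-1 (G12D) and NCI-H441 (G12V), were plated overnight and then exposed to compound for 3 h at 37 °C (final 0.1% DMSO, 10% FBS medium). ERK T202/Y204 phosphorylation in lysates was read by HTRF, and IC50 was derived from four-parameter curves of inhibition relative to DMSO and blank controls.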

AsPC-1 cells = experiment: 3D cell proliferation assay (CellTiter Glo-3D) in AsPC-1 cells; details: ASPC1, 120 h; AsPC-1, human pancreatic cancer cell strain, KRAS G12D mutation; 3D culture, 2% FBS, 5 days; read-out: AsPC-1 AP IC50
Excerpt: MIA PaCa-2 cells were purchased from ATCC, Cat. No. CRL-1420; AsPC-1 cells were purchased from ATCC, Cat. No. CRL-1682; NCI-H441 cells were purchased from ATCC, Cat. No. HTB-174; NCI-H1975 cells were purchased from ATCC, Cat. No. CRL-5908; DMEM medium was purchased from Gibco, Cat. No. 11995-065; RPMI-1640 medium was purchased from Gibco, Cat. No. 11875-093; FBS was purchased from Gibco, Cat. No. 10099-141C; penicillin/streptomycin double-antibiotic solution (PS) was purchased from Gibco, Cat. No. 15140-122; Horse serum was purchased from Gibco, Cat. No. 16050130; trypsin (containing EDTA) was purchased from Gibco, Cat. No. 25200-072; DMSO was purchased from VWRAMRESCO, Cat. No. 0231-500ML; 384-well cell culture plates were purchased from Corning, Cat. No. 3830; white-bottomed, opaque 384-well assay plates were purchased from Corning, Cat. No. 3570; CellTiter Glo-3D kit was purchased from Promega, Cat. No. G9683; cell counter was purchased from CHEMOMETEC, model: NC-200; microplate reader was purchased from PerkinElmer, model: EnVision.
MIA PaCa-2, a human pancreatic cancer cell strain endogenously containing a KRAS^G12Cmutation, was cultured in a complete medium containing DMEM + 10% FBS + 2.5% Horse serum + 1% PS. AsPC-1, a human pancreatic cancer cell strain endogenously containing a KRAS^G12D mutation, was cultured in a complete medium containing RPMI-1640 + 10% FBS + 1% PS. NCI-H441 cells, a human lung cancer cell strain endogenously containing a KRAS^G12V mutation, were cultured in a complete medium containing RPMI-1640 + 10% FBS + 1% PS. NCI-H1975, a KRAS wild-type human lung cancer cell strain whose cell proliferation […], was cultured in a complete medium containing RPMI-1640 + 10% FBS + 1% PS.
The cells were digested with trypsin (containing EDTA), collected in their respective low-serum complete media containing 2% FBS (for MIA Paca-2 cell culture: DMEM + 2% FBS + 0.5% Horse serum + 1% PS), and counted. After the cell density was adjusted as required, MIA PaCa-2 cells (200 cells/well), AsPC-1 cells (800 cells/well), NCI-H441 cells (800 cells/well), or NCI-H1975 cells (400 cells/well) were seeded into a 384-well cell culture plate, with the volume of the medium in each well being 45 µL. The cell culture plate was incubated in an incubator at 37 °C with 5% CO2 overnight. A series of 3.16-fold gradient dilutions of a 1000× compound stock solution were prepared with DMSO, and then diluted 100-fold with the complete medium containing 2% FBS described above to give 10× compound stock solutions. On the day after cell seeding, 5 µL of the 10× compound stock solution was added to each cell culture well. As a result, the final concentration of the compound in the cell culture well became 1×, and the DMSO content in the well was 0.1%. In addition to the compound-treated wells described above, cell-containing DMSO control wells (with 5 µL of the complete medium containing 1% DMSO added to each well) and cell-free medium control wells (containing 50 µL of the complete medium with 2% FBS) were also set. The culture plate was incubated in an incubator at 37 °C with 5% CO2 for another 5 days, and then 30 µL of CellTiter-Glo working solution was added to each well. The mixture was well mixed, incubated for 30 min, left to stand at room temperature for 30 min, and then transferred to a white-bottomed, opaque 384-well assay plate at 40 µL/well. The chemiluminescence values (RLU) were measured using a microplate reader, and the cell proliferation inhibition rate for each well was calculated: IR(%) = (RLUDMSO - RLUcompound)/(RLUDMSO - RLUblank) × 100%, where RLUDMSO is the average RLU signal value from the DMSO control well samples, RLUblank is the average RLU signal value from the medium control well samples, and RLUcompound is the RLU signal value from the compound-treated well samples. […]

Row | Structure (SMILES) | IC50 (NCI-H441 cells) | IC50 (p-ERK [1]) | IC50 (p-ERK [2]) | IC50 (AsPC-1 cells)
1 | CCn1cc2c(c1-c1cc(N3CCN(C)CC3)cnc1[C@H](C)OC)CC(C)(C)COC(=O)[C@@H]1CCCN(N1)C(=O)[C@@H](NC(=O)[C@H]1[C@H](C)[C@@H]1C)Cc1nc(cs1)/C=C/2 (atropisomer, axis not shown) [Compound Z8A, (1r,2S,3R)-N-((4^2Z,8^3R,2E,6R)-1^1-ethyl-1^5-(2-((S)-1-methoxyethyl)-5-(4-methylpiperazin-1-yl)pyridin-3-yl)-12,12-dimethyl-7,9-dioxo-8^1,8^2,8^3,8^4,8^5,8^6-hexahydro-1^1H-10-oxa-4(4,2)-thiazola-8(1,3)-pyridazina-1(3,4)-pyrrolacyclotridecaphan-2-en-6-yl)-2,3-dimethylcyclopropane-1-carboxamide] | 3.98 nM | 8.19 nM | 8.08 nM | 3.71 nM
2 | CO[C@@H](C)c1ncc(C#CCN2CCS(=O)(=O)CC2)cc1-c1c2c(nn1C(C)C)/C=C/c1csc(n1)C[C@H](NC(=O)[C@H]1[C@H](C)[C@@H]1C)C(=O)N1CCC[C@H](N1)C(=O)OCC(C)(C)C2 (atropisomer, axis not shown) [Compound Z15A, (1r,2R,3S)-N-((4^2Z,8^3S,2E,6S)-1^5-(5-(3-(1,1-dioxidothiomorpholino)prop-1-yn-1-yl)-2-((S)-1-methoxyethyl)pyridin-3-yl)-1^1-isopropyl-12,12-dimethyl-7,9-dioxo-8^1,8^2,8^3,8^4,8^5 3^6-hexahydro-1^1H-10-oxa-4(4,2)-thiazola-8(1,3)-pyridazina-1(3,4)-pyrrolacyclotridecaphan-2-en-6-yl)-2,3-dimethylcyclopropane-1-carboxamide] | 7.63 nM | 30 nM | 7.99 nM | 22.7 nM
3 | CCn1c(-c2cc(C#CCN3CCS(=O)(=O)CC3)cnc2[C@H](C)OC)c2c3cc(ccc31)NC(=O)OC[C@H](NC(=O)[C@H]1[C@H](C)[C@@H]1C)C(=O)N1CCC[C@H](N1)C(=O)OCC(C)(C)C2 (atropisomer, axis not shown; (Ra)) [Compound Z36, (1r,2R,3S)-N-((7^3S,9S)-1^2-(5-(3-(1,1-dioxidothiomorpholino)prop-1-yn-1-yl)-2-((S)-1-methoxyethyl)pyridin-3-yl)-1^1-ethyl-(Ra)-3,3-dimethyl-6,8,12-trioxo-7^1,7^2,7^3,7^4,7^5,7^6-hexahydro-1^1H-5,11-dioxa-13-aza-1(3,5)-indola-7(3,1)-pyridazinaocycloundecan-9-yl)-2,3-dimethylcyclopropane-1-carboxamide] | 40.6 nM | 230 nM | 40.4 nM | 374 nM
4 | CO[C@@H](C)c1ncc(C#CCN2CCS(=O)(=O)CC2)cc1-c1c2c(nn1C(C)C)/C=C/c1csc(n1)C[C@H](NC(=O)CC1CC(CO)C1)C(=O)N1CCC[C@H](N1)C(=O)OCC(C)(C)C2 (stereo partly drawn) [Compound Z39, N-((4^2Z,8^3S,2E,6S)-1^5-(5-(3-(1,1-dioxidothiomorpholino)prop-1-yn-1-yl)-2-((S)-1-methoxyethyl)pyridin-3-yl)-1^1-isopropyl-12,12-dimethyl-7,9-dioxo-8^1,8^2,8^3,8^4,8^5,8^6-hexahydro-1^1H-10-oxa-4(4,2)-thiazola-8(1,3)-pyridazina-1(3,4)-pyrrolacyclotridecaphan-2-en-6-yl)-2-(3-(hydroxymethyl)cyclobutyl)acetamide] |  | 506 nM | 177 nM | 
